Measured values published in ChEMBL document CHEMBL1201862, “PubChem BioAssay data set” (2004).
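Values below derive from 48-hour exposures of cells grown in 96-well plates, with endpoints linearly interpolated between the two concentrations bracketing the appropriate inhibition level. GI50 marks 50% less growth.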 Active and inactive are the calls of the source. Rule as the data show it: active = GI50 up to about 1.1 µM and inactive = higher.

How the values were obtained:
Test in all cases: DTP human tumour cell line panel, 48 h
[1] = tested on: MCF7
[2] = tested on: CCRF-CEM
[3] = tested on: HL-60
[4] = tested on: IGROV-1
[5] = tested on: DU-145
[6] = tested on: SF-295
[7] = tested on: SF-539
[8] = tested on: KM12
[9] = tested on: K562
[10] = tested on: OVCAR-4
[11] = tested on: SK-MEL-2
[12] = tested on: SK-MEL-28
[13] = tested on: SW-620
[14] = tested on: EKVX
[15] = tested on: HCT-15
[16] = tested on: ACHN
[17] = tested on: U-251
[18] = tested on: COLO 205
[19] = tested on: PC-3
[20] = tested on: A498
[21] = tested on: LOX IMVI
[22] = tested on: HT-29
[23] = tested on: RXF 393
[24] = tested on: OVCAR-3
[25] = tested on: UACC-62
[26] = tested on: 786-0
[27] = tested on: SN12C
[28] = tested on: UACC-257
[29] = tested on: MDA-N
[30] = tested on: NCI/ADR-RES
[31] = tested on: MDA-MB-231
[32] = tested on: TK-10
[33] = tested on: SNB-19
[34] = tested on: NCI-H460
[35] = tested on: MDA-MB-435
[36] = tested on: SK-OV-3
[37] = tested on: MOLT-4
[38] = tested on: HCT-116
[39] = tested on: UO-31
[40] = tested on: SK-MEL-5
[41] = tested on: OVCAR-5
[42] = tested on: SR
[43] = tested on: SNB-75
[44] = tested on: OVCAR-8
[45] = tested on: A549
[46] = tested on: NCI-H226
[47] = tested on: CAKI-1
[48] = tested on: HOP-92
[49] = tested on: M14
[50] = tested on: HCC 2998
[51] = tested on: T47D
[52] = tested on: NCI-H23
[53] = tested on: Malme-3M
[54] = tested on: NCI-H522
[55] = tested on: Hs-578T
[56] = tested on: SF-268

`O=c1[nH]c(=O)n(COCc2ccccc2)c2ccccc12` was tested, and the GI50 [1] was 38 µM (inactive), the GI50 [2] was 56.9 µM (inactive) and the GI50 [3] was 19.9 µM (inactive). The GI50 [4] was 18.4 µM (inactive), the GI50 [5] was > 100 µM (inactive) and the GI50 [6] was > 100 µM (inactive). The GI50 [7] was 47.9 µM (inactive), the GI50 [8] was 59.8 µM (inactive) and the GI50 [9] was 45.6 µM (inactive). For the same compound, the GI50 [10] was 44.3 µM (inactive), the GI50 [11] was > 100 µM (inactive) and the GI50 [12] was 91.4 µM (inactive). The GI50 [13] was > 100 µM (inactive), the GI50 [14] was 22.5 µM (inactive) and the GI50 [15] was 14 µM. The GI50 [16] was 32.1 µM (inactive), the GI50 [17] was 52.1 µM (inactive) and the GI50 [18] was 72.3 µM (inactive). The GI50 [19] was 39.7 µM (inactive), the GI50 [20] was > 100 µM (inactive) and the GI50 [21] was 95.3 µM (inactive). For the same compound, the GI50 [22] was 31.9 µM (inactive), the GI50 [23] was 19.1 µM (inactive) and the GI50 [24] was 87.3 µM (inactive). For the same compound, the GI50 [25] was 75 µM (inactive), the GI50 [26] was > 100 µM (inactive) and the GI50 [27] was > 100 µM (inactive). The GI50 [28] was 53.7 µM (inactive), the GI50 [29] was 83 µM (inactive) and the GI50 [30] was 20.5 µM (inactive). For the same compound, the GI50 [31] was 49.2 µM (inactive), the GI50 [32] was 51.5 µM (inactive) and the GI50 [33] was 23 µM (inactive). The GI50 [34] was 40.9 µM (inactive), the GI50 [35] was > 100 µM (inactive) and the GI50 [36] was 89.9 µM (inactive). For the same compound, the GI50 [37] was 44.4 µM (inactive), the GI50 [38] was 46.3 µM (inactive) and the GI50 [39] was 29.1 µM (inactive). The GI50 [40] was 27.7 µM (inactive), the GI50 [41] was > 100 µM (inactive) and the GI50 [42] was 37 µM (inactive). The GI50 [43] was 13.1 µM (inactive), the GI50 [44] was 40.9 µM (inactive) and the GI50 [45] was 92.7 µM (inactive). The GI50 [46] was 47.8 µM (inactive), the GI50 [47] was 62.7 µM (inactive) and the GI50 [48] was 77.6 µM (inactive). The GI50 [49] was > 100 µM (inactive).

For `O=C1C(Cl)=C(N2CCN(CCOCCO)CC2)C(=O)c2c(O)ccc(O)c21`, the GI50 [5] was 1.82 µM (inactive), the GI50 [7] was 1.75 µM (inactive) and the GI50 [50] was 1.83 µM (inactive). The GI50 [15] was 0.227 µM, the GI50 [51] was 264 nM (active) and the GI50 [34] was 1.98 µM (inactive). For the same compound, the GI50 [41] was 1.87 µM (inactive), the GI50 [43] was 1.6 µM (inactive) and the GI50 [45] was 2.01 µM (inactive). For the same compound, the GI50 [46] was 1.89 µM (inactive) and the GI50 [48] was 0.237 µM (active).

With `c1ccc2c(Nc3ccc(Oc4ccc(Nc5c6ccccc6nc6ccccc56)cc4)cc3)c3ccccc3nc2c1` the GI50 [1] was 0.0942 µM (active), the GI50 [3] was 0.547 µM (active) and the GI50 [52] was 181 nM (active). The GI50 [53] was 1.73 µM (inactive), the GI50 [5] was 0.277 µM (active) and the GI50 [6] was 1.67 µM (inactive). The GI50 [54] was 665 nM (active), the GI50 [10] was 0.0668 µM (active) and the GI50 [11] was 1.96 µM (inactive). The GI50 [50] was < 0.01 µM (active), the GI50 [12] was 0.102 µM (active) and the GI50 [13] was 0.0649 µM (active). For the same compound, the GI50 [14] was 1.5 µM (inactive), the GI50 [18] was 0.815 µM (active) and the GI50 [55] was 2.21 µM (inactive). For the same compound, the GI50 [19] was 1.6 µM (inactive), the GI50 [20] was 1.85 µM (inactive) and the GI50 [51] was 556 nM (active). The GI50 [21] was 0.792 µM (active), the GI50 [23] was 2.4 µM (inactive) and the GI50 [24] was 0.0659 µM (active). The GI50 [26] was 0.0504 µM (active), the GI50 [56] was 1.57 µM (inactive) and the GI50 [30] was 0.0655 µM (active). The GI50 [32] was 1.19 µM (inactive), the GI50 [33] was 0.299 µM (active) and the GI50 [34] was 0.618 µM (active). The GI50 [35] was 0.0647 µM (active), the GI50 [36] was 1.72 µM (inactive) and the GI50 [40] was 1.57 µM (inactive). For the same compound, the GI50 [41] was 0.528 µM (active), the GI50 [43] was 0.436 µM (active) and the GI50 [44] was 0.139 µM (active). For the same compound, the GI50 [46] was 1.72 µM (inactive), the GI50 [47] was 1.63 µM (inactive) and the GI50 [48] was 1.83 µM (inactive). The GI50 [49] was 0.0925 µM (active).
